Source: patent US6822146B2, “Sulfonylurea-tolerant sunflower line M7” (priority 2000, dated 2004)
Like-named read-outs stand apart in the source and are kept apart here.

Tests used:
[1] = test system: BC2-M3M11; experiment: Test G control of volunteer sunflower, BC2-M3M11; assay type: in vivo; conditions: rated 4 weeks after application, scale 0-100
[2] = test system: ALS enzymes of the mutant lines selected with thifensulfuron-methyl; experiment: ALS activity of mutant lines relative to wild-type H89B; assay type: biochemical, sunflower; conditions: in the presence of thifensulfuron-methyl
[3] = test system: Homozygous resistant inbred lines, BC3-M4M12 (I), BC3-M4M11 (J) and BC3-M4M7 (K); experiment: Test A summary, homozygous resistant inbred lines; conditions: in vivo
Protocol: In a small field trial, the sunflower varieties described in Table 4 were sprayed post-emergence with a variety of sulfonylurea herbicide treatments.
Broadcast post-emergence applications of formulated sulfonylurea herbicides were performed at the 6-leaf development stage using four randomly distributed replications. Application rates were chosen to match the usual use rates of these herbicides in the crops they are registered in Europe. All herbicides except for metsulfuron-methyl were sprayed in combination with Citowet® non-ionic ethoxylated alcohol at 0.25% volume of formulated product per volume of water applied per hectare.
The evaluation of the maximum (i.e. peak) injury to sunflower varieties by sulfonylurea herbicides was measured by visual ratings, which are listed in Table 5. A rating of 0% phytotoxicity means no crop injury. […] A rating of 100% means the complete destruction of all plants.

[4] = test system: BC2-M3M12; experiment: Test G control of volunteer sunflower, BC2-M3M12; assay type: in vivo; conditions: rated 4 weeks after application, scale 0-100
[5] = test system: H89A × M4M12; assay type: in vivo, sunflower; conditions: variety F
Source text: (§1) To generate the hybrids C, D and E, the fourth generation self-pollinated maintainer mutant lines M4M12, M4M11 and M4M7 were chemically sterilized by applying at the bud “star” flower stage a small amount of gibberellic acid solution to sterilize the pollen according to the general method described in Sunflower Science Technology, J. F. Carter ed. (Number 19 in the series “Agronomy”) pp. 339-386. This treatment enables maintainer plants to behave as CMS inbred lines and allows the production of heterozygous resistant hybrids, with the herbicide resistant source coming from the female side. Such crosses allowed evaluating the sexual effect of the mutation source when introduced on the female side of a cross as described in crosses C, D and E versus the male side of a cross as described in crosses F, G and H. Labels I, J and K identify third generation CMS mutant lines crossed with fourth generation maintainer lines to maintain the highly heritable mutant trait in a male sterile homozygous resistant environment. One skilled in sunflower breeding art understands the meaning of such crosses.
(§2) A rating of 0% phytotoxicity means no crop injury.

[6] = test system: H89A × M4M7; assay type: in vivo, sunflower; conditions: variety H
Source text: as §1, §2

[7] = test system: Hybrid control: H89A × RHA274; assay type: in vivo, sunflower; conditions: variety A
Source text: as §1, §2

[8] = test system: Inbred line control: H89A; assay type: in vivo, sunflower; conditions: variety B
Source text: as §1, §2

[9] = test system: H89A × M4M11; assay type: in vivo, sunflower; conditions: variety G
Source text: as §1, §2

[10] = test system: mutants originating from M11 and M12; conditions: tribenuron-methyl up to 60 g a.i./ha; others at Test G rates
Source text: This test involved sulfonylurea-resistant sunflower progeny BC2-M3M11 and BC2-M3M12, derived from M11 and M12, respectively. Also, a sulfonylurea-susceptible hybrid, H89A×RHA274, was included for comparison. Plants were sprayed with formulated herbicides at the 4-leaf stage. The efficacy of the treatments on the sunflowers was visually rated 4 weeks after application, using a scale where 0 means no control of the sunflowers, 85 means sufficient efficacy level to stop plants from flowering and propagating, and 100 means a complete destruction of the mutants.
Weed control in sugar beet requires 2-3 herbicide applications per season to efficiently control weeds in this slow growing crop.

[11] = test system: H89A × RHA274 (sulfonylurea-susceptible hybrid); experiment: Test G control of volunteer sunflower, H89A × RHA274; assay type: in vivo; conditions: rated 4 weeks after application, scale 0-100
[12] = test system: BC4-M5M12; experiment: Test B greenhouse phytotoxicity, BC4-M5M12; assay type: in vivo, sunflower; conditions: in vivo
Protocol: (§3) A greenhouse experiment was conducted to evaluate the spectrum of tolerance of three homozygous resistant mutants to various herbicides inhibiting acetolactate synthase (ALS) as their mode of action. The inbred lines tested were the 5th generation self-pollinated maintainers, M5M7, M5M11 and M5M12, as well as the 4th generation male sterile back-crosses BC4-M5M7, BC4-M5M11 and BC4-M5M12. Treatments of formulated herbicides were applied post-emergence at the 4-leaf stage. Application rates of the test herbicides were chosen to coincide with the rates commonly used in the crops for which they are registered. The application rate of imazethapyr was chosen to match the rate recommended to control parasitic weeds in sunflowers by L. García-Torres et al., Weed Technology 1995, 9, 819-824. Wild type H89 inbred sunflower was not included in this test, because the many of the tested herbicides are known to be efficacious in controlling volunteer sunflower as a weed. Treatments were replicated twice. […] A rating of 0% phytotoxicity means no crop injury.

[13] = test system: BC4-M5M7; experiment: Test B greenhouse phytotoxicity, BC4-M5M7; assay type: in vivo, sunflower; conditions: in vivo
Protocol: as §3

[14] = test system: acetolactate synthase (ALS) from M2E24; experiment: ALS activity remaining, M2E24 extract; assay type: biochemical, sunflower; conditions: mutant line selected with rimsulfuron, in the presence of rimsulfuron
[15] = test system: M5M12; experiment: Test B greenhouse phytotoxicity, M5M12; assay type: in vivo, sunflower; conditions: in vivo
Protocol: as §3

[16] = test system: 'M11'; experiment: Tolerance of M11 to rimsulfuron; conditions: in vivo
[17] = test system: M5M7; experiment: Test B greenhouse phytotoxicity, M5M7; assay type: in vivo, sunflower; conditions: in vivo
Protocol: as §3

[18] = test system: M5M11; experiment: Test B greenhouse phytotoxicity, M5M11; assay type: in vivo, sunflower; conditions: in vivo
Protocol: as §3

[19] = test system: BC4-M5M11; experiment: Test B greenhouse phytotoxicity, BC4-M5M11; assay type: in vivo, sunflower; conditions: in vivo
Protocol: as §3

[20] = test system: homozygous progeny of the three mutant sources; assay type: in vivo, sunflower; conditions: Test B application rates, post-emergence
Protocol: as §3

COC(=O)c1sccc1S(=O)(=O)NC(=O)Nc1nc(C)nc(OC)n1 [Thifensulfuron-methyl, thifensulfuron-methyl]
Efficacy on BC2-M3M11 ([1]; 10 g a.i./ha): 2 | Efficacy on BC2-M3M11 ([1]; 20 g a.i./ha): 17 | Efficacy on BC2-M3M11 ([1]; 40 g a.i./ha): 50 | Efficacy on BC2-M3M11 ([1]; 60 g a.i./ha): 74 | ALS activity retained relative to wild-type ALS from H89B [2]: 2-6 times | tolerance of homozygous resistant inbred lines I, J, K [3]: less susceptible than the standards | tolerance of homozygous resistant lines compared with heterozygous hybrids [3]: the homozygous resistant lines were more tolerant | Efficacy on BC2-M3M12 ([4]; 10 g a.i./ha): 10 | Efficacy on BC2-M3M12 ([4]; 20 g a.i./ha): 16 | Efficacy on BC2-M3M12 ([4]; 40 g a.i./ha): 32 | Efficacy on BC2-M3M12 ([4]; 60 g a.i./ha): 58 | Maximum Phytotoxicity ([5]; 35 g a.i./ha post-emergence): 78% | Maximum Phytotoxicity ([5]; 70 g a.i./ha post-emergence): 89% | Maximum Phytotoxicity ([6]; 35 g a.i./ha post-emergence): 80% | Maximum Phytotoxicity ([6]; 70 g a.i./ha post-emergence): 90% | Maximum Phytotoxicity ([7]; 35 g a.i./ha post-emergence): 100% | Maximum Phytotoxicity ([7]; 70 g a.i./ha post-emergence): 99% | Maximum Phytotoxicity ([8]; 35 g a.i./ha post-emergence): 100% | Maximum Phytotoxicity ([8]; 70 g a.i./ha post-emergence): 100% | Maximum Phytotoxicity ([9]; 35 g a.i./ha post-emergence): 81% | Maximum Phytotoxicity ([9]; 70 g a.i./ha post-emergence): 90% | resistance/tolerance of the mutants [10]: to a lesser extent than with tribenuron-methyl | Efficacy on H89A × RHA274 ([11]; 10 g a.i./ha, 4-leaf stage): 100 | Efficacy on H89A × RHA274 ([11]; 20 g a.i./ha): 100 | Efficacy on H89A × RHA274 ([11]; 40 g a.i./ha): 100 | Efficacy on H89A × RHA274 ([11]; 60 g a.i./ha): 100

CCS(=O)(=O)c1cccnc1S(=O)(=O)NC(=O)Nc1nc(OC)cc(OC)n1 [Rimsulfuron, rimsulfuron]
Maximum Phytotoxicity [12]: 65% | Maximum Phytotoxicity [13]: 45% | ALS activity retained relative to wild-type ALS from H89B [14]: 4-6 times | Maximum Phytotoxicity [15]: 55% | tolerance of M11 [16]: not tolerant | Maximum Phytotoxicity [17]: 52.5% | tolerance of homozygous resistant inbred lines I, J, K [3]: as susceptible as the standards | Maximum Phytotoxicity [18]: 65% | Maximum Phytotoxicity ([5]; 15 g a.i./ha post-emergence): 98% | Maximum Phytotoxicity ([5]; 30 g a.i./ha post-emergence): 100% | Maximum Phytotoxicity ([6]; 15 g a.i./ha post-emergence): 96% | Maximum Phytotoxicity ([6]; 30 g a.i./ha post-emergence): 100% | Maximum Phytotoxicity ([7]; 15 g a.i./ha post-emergence): 100% | Maximum Phytotoxicity ([7]; 30 g a.i./ha post-emergence): 100% | Maximum Phytotoxicity ([8]; 15 g a.i./ha post-emergence): 100% | Maximum Phytotoxicity ([8]; 30 g a.i./ha post-emergence): 100% | Maximum Phytotoxicity ([9]; 15 g a.i./ha post-emergence): 98% | Maximum Phytotoxicity ([9]; 30 g a.i./ha post-emergence): 100% | Maximum Phytotoxicity [19]: 47.5% | tolerance of the mutants [20]: somewhat sensitive
